Measured values as given in patent publication US20210317140A1, “Heterocyclic Compounds and Methods of Use” (MEDIVATION TECHNOLOGIES, INC, priority 2013, published 2021).

Tests used:
Type in all cases: biochemical
PI3Kβ = target: T1, PI3Kβ (Homo sapiens, UniProt P42338); assay: PI3Kβ isoform profiling (PI3Kδ protocol); conditions: for PI3Kβ @ 0.3 μM (% Inh): 0.3 μM compound; for IC50: 10 dose IC50
T1 construct: purchased Reaction Biology Corporation
Source text: PI3Kδ assay: The PIP3 product is detected by displacement of biotin-PIP3 from an energy transfer complex consisting of Europium labeled anti-GST monoclonal antibody, a GST-tagged pleckstrin homology (PH) domain, biotinylated PIP3 and Streptavidin-Allophycocyanin (APC). Excitation of Europium in the complex results in an energy transfer to the APC and a fluorescent emission at 665 nm. The PIP3 product formed by PI 3-Kinase(h) activity displaces biotin-PIP3 from the complex resulting in a loss of energy transfer and thus a decrease in signal. This is a 3-step reaction: First, the kinase reaction with PIP2 substrate is carried out in the presence of ATP (10 μM), and the reaction is quenched with stop Solution, and then finally detect by adding Detection Mixture followed by incubation (10 min). Reaction procedure: 1) Prepare substrate in freshly prepared Reaction Buffer. 2) Deliver kinase into the substrate solution and gently mix. 3) Deliver compounds in 100% DMSO (1 μM) into the kinase reaction mixture by Acoustic technology (Echo550; nanoliter range), incubate for 10 min at RT. 4) Deliver ATP into the reaction mixture to initiate the reaction. 5) Incubate for 30 min at 30° C. 6) Quench the reaction with Stop Solution. 7) Add Detection Mixture, and incubate for overnight. 8) Measure HTRF: Ex=320 nm, ratio of Em=615 nm and Em=665 nm. The emission ratio is converted into μM PIP3 production based on PIP3 standard curves. The nonlinear regression to obtain the standard curve and IC50 values are performed using Graphpad Prism software. Assay Buffer: HEPES 50 mM (pH7.0), NaN3 0.02%, BSA 0.01%, Orthovanadate 0.1 mM, 1% DMSO. Detection buffer: HEPES 10 mM (pH7.0), BSA 0.02%, KF 0.16 M, EDTA 4 mM. Substrate: 10 μM PIP2 substrate (PI(4,5)P2).
Compounds of the invention were profiled in a 10 dose IC50 panel against PI3Kα, PI3Kβ, and PI3Kγ kinases, provided by Reaction Biology Corporation, applied to the PI3Kδ protocol provided in Example B1.

TEC = target: T2, TEC (Homo sapiens, UniProt P42680); assay: TEC kinase profiling (BTK protocol); conditions: for TEC @ 0.3 μM (% Inh): 0.3 μM compound; for IC50: 10 dose IC50
T2 construct: purchased Reaction Biology Corporation
T2 sequence (P42680 1-631): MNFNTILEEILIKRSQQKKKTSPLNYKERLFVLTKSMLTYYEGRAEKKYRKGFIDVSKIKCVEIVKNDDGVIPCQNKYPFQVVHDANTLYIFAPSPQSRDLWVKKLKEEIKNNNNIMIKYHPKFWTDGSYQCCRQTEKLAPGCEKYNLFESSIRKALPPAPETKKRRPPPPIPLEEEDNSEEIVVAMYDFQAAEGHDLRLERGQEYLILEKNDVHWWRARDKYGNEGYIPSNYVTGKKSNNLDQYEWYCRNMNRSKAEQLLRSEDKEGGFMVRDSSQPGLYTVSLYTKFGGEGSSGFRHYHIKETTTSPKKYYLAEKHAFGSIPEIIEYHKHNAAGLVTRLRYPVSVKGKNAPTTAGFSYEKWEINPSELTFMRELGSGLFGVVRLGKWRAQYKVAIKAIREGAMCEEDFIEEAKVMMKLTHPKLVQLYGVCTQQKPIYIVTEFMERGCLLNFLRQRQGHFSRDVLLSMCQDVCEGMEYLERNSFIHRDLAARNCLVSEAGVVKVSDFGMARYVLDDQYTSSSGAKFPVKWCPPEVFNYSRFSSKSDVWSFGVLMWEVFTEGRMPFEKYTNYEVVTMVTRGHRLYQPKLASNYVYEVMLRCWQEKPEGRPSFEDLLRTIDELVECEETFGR
Method: (§1) BTK assay: In vitro profiling protein kinases was performed using the “HotSpot” assay platform. Briefly, specific kinase/substrate pairs along with required cofactors were prepared in reaction buffer. Compounds were prepared as 10 mM stock solutions in DMSO. Compounds were delivered into the reaction, followed 15-20 minutes later by addition of a mixture of ATP (Sigma, St. Louis Mo.) and ^33P ATP (Perkin Elmer, Waltham Mass.) to a final concentration of 10 μM. […] IC50 values and curve fits were obtained using Prism (GraphPad Software). Buffer Conditions: 20 mM Hepes (pH 7.5), 10 mM MgCl2, 1 mM EGTA, 0.02% Brij35, 0.02 mg/mL BSA, 0.1 mM Na3VO4, 2 mM DTT, 1% DMSO.

ITK = target: T3, ITK (Homo sapiens, UniProt Q08881); assay: ITK kinase profiling (BTK protocol); conditions: for ITK @ 0.3 μM (% Inh): 0.3 μM compound; for IC50: 10 dose IC50
T3 construct: purchased Reaction Biology Corporation
T3 sequence (Q08881 1-620): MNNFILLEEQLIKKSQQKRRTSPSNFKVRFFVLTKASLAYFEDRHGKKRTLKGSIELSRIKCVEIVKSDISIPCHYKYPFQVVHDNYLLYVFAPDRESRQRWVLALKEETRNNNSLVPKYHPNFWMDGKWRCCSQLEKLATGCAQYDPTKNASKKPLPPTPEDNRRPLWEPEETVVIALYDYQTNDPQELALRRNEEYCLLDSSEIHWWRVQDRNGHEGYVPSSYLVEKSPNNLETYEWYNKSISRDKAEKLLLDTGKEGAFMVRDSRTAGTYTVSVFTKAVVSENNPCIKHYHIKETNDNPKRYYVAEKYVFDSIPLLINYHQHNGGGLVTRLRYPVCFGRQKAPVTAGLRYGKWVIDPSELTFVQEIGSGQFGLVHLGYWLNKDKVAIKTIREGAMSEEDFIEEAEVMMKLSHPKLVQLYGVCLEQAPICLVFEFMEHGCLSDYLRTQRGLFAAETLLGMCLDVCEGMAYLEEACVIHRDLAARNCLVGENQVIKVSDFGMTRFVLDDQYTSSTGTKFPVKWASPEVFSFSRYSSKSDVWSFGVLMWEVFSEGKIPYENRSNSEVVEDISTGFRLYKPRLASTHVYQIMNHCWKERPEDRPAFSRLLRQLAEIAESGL
Method: as §1

T1 sequence (P42338 whole entry, canonical isoform): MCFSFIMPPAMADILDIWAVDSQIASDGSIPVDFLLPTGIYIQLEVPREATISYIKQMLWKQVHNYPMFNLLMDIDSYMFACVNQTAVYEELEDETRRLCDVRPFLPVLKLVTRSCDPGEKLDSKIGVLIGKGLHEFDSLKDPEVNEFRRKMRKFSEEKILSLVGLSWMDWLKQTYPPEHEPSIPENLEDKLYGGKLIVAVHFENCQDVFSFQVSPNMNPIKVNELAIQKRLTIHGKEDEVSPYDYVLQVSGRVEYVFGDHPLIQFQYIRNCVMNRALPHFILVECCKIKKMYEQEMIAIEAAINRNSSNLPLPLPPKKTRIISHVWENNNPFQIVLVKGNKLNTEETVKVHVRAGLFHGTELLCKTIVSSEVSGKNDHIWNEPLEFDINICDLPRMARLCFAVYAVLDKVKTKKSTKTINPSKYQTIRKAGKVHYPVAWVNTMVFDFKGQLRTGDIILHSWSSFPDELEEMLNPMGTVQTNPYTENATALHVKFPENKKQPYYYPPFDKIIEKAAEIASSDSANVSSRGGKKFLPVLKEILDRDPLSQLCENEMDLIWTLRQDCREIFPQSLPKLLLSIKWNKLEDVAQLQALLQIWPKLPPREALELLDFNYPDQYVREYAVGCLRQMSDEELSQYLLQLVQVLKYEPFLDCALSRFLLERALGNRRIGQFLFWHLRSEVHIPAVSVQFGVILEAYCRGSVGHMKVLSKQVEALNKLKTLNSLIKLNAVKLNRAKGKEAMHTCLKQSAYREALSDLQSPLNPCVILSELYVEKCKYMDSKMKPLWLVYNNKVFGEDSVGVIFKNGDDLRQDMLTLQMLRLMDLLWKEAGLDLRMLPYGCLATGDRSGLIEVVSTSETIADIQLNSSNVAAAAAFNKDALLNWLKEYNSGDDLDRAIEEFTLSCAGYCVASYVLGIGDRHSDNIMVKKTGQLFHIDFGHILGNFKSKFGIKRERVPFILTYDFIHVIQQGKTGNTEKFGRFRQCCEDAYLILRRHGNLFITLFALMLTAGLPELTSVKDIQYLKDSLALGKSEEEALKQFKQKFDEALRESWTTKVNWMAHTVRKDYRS
T1 sequence (P27986 whole entry partner, canonical isoform): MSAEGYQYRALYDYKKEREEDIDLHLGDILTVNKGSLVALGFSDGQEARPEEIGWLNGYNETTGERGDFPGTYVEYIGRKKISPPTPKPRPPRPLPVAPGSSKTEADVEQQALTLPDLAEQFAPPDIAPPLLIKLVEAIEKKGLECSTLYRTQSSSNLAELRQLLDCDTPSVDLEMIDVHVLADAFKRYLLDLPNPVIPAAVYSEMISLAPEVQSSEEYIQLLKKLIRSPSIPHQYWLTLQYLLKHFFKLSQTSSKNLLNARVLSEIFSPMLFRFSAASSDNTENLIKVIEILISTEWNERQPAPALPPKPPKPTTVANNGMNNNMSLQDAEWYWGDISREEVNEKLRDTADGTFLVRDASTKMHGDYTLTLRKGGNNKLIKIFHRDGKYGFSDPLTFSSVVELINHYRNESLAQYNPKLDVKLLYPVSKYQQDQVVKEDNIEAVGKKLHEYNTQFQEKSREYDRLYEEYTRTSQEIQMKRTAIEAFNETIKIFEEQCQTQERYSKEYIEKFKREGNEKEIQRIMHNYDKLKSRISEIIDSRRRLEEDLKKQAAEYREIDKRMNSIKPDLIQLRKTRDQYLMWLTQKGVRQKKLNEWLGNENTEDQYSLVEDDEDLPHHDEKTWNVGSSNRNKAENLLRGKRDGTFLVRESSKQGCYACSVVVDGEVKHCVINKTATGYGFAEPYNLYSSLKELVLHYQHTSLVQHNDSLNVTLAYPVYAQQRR

Row | Structure (SMILES) | PI3Kβ @ 0.3 μM (% Inh) (PI3Kβ) | TEC @ 0.3 μM (% Inh) (TEC) | ITK @ 0.3 μM (% Inh) (ITK) | further results
1 | Nc1ncnc2c1c(-c1ccc(F)c(O)c1)nn2C1CCc2ccccc2C1 (racemic) [Compound No. 26, 5-(4-amino-1-(1,2,3,4-tetrahydronaphthalen-2-yl)-1H-pyrazolo[3,4-d]pyrimidin-3-yl)-2-fluorophenol] | 37.87 % Inh | 66.1 % Inh | 2.15 % Inh | 
2 | Nc1ncnc2c1c(-c1ccc3cc[nH]c3c1)nn2C1CCc2ccccc2C1 (racemic) [compound 18, 3-(1H-indol-6-yl)-1-(1,2,3,4-tetrahydronaphthalen-2-yl)-1H-pyrazolo[3,4-d]pyrimidin-4-amine] | 34.21 % Inh | 10.01 % Inh | −3.29 % Inh | 
3 | Nc1ncnc2c1c(-c1cc(O)cc(F)c1)nn2C1CCc2ccccc2C1 (single isomer, unassigned) [6a, 3-(4-amino-1-(1,2,3,4-tetrahydronaphthalen-2-yl)-1H-pyrazolo[3,4-d]pyrimidin-3-yl)-5-fluorophenol] |  |  |  | PI3Kβ @ 0.3 μM (% Inh) (PI3Kβ; 0.3 µM): 55.06 % Inh; TEC @ 0.3 μM (% Inh) (TEC; 0.3 µM): 41.28 % Inh; ITK @ 0.3 μM (% Inh) (ITK; 0.3 µM): 4.58 % Inh
4 | Nc1ncnc2c1c(-c1cc(O)cc(F)c1)nn2C1CCc2ccccc2C1 (single isomer, unassigned) [6b, 3-(4-amino-1-(1,2,3,4-tetrahydronaphthalen-2-yl)-1H-pyrazolo[3,4-d]pyrimidin-3-yl)-5-fluorophenol] |  |  |  | PI3Kβ @ 0.3 μM (% Inh) (PI3Kβ; 0.3 µM): 69.23 % Inh; TEC @ 0.3 μM (% Inh) (TEC; 0.3 µM): 27.3 % Inh; ITK @ 0.3 μM (% Inh) (ITK; 0.3 µM): 0.04 % Inh
5 | C=CC(=O)N1CC(n2nc(-c3cc(O)cc(F)c3)c3c(N)ncnc32)Cc2cc(C)ccc21 (single isomer, unassigned) [31b, 1-(3-(4-amino-3-(3-fluoro-5-hydroxyphenyl)-1H-pyrazolo[3,4-d]pyrimidin-1-yl)-6-methyl-3,4-dihydroquinolin-1(2H)-yl)prop-2-en-1-one] | 32.34 % Inh | 56.91 % Inh | 6.31 % Inh | 
6 | Nc1ncnc2c1c(-c1ccc(F)c(O)c1)nn2C1CCc2ccccc2C1 (single isomer, unassigned) [Compound No. 26a, 5-(4-amino-1-(1,2,3,4-tetrahydronaphthalen-2-yl)-1H-pyrazolo[3,4-d]pyrimidin-3-yl)-2-fluorophenol] |  |  |  | IC50 (PI3Kβ): 1.12 µM; IC50 (TEC): 0.0493 µM; IC50 (ITK): > 100 µM
7 | Nc1ncnc2c1c(-c1ccc(F)c(O)c1)nn2C1CCc2ccccc2C1 (single isomer, unassigned) [Compound No. 26b, 5-(4-amino-1-(1,2,3,4-tetrahydronaphthalen-2-yl)-1H-pyrazolo[3,4-d]pyrimidin-3-yl)-2-fluorophenol] |  |  |  | IC50 (PI3Kβ): 0.787 µM; IC50 (TEC): 0.0821 µM; IC50 (ITK): 51.6 µM
8 | Nc1ncnc2c1c(-c1ccc(F)c(O)c1)nn2C1Cc2ccccc2C1 [Compound No. 29, 5-(4-amino-1-indan-2-yl-pyrazolo[3,4-d]pyrimidin-3-yl)-2-fluoro-phenol] |  |  |  | IC50 (PI3Kβ): 0.418 µM; IC50 (TEC): 0.0205 µM; IC50 (ITK): > 100 µM
9 | COc1cc(-c2nn(C3Cc4ccccc4C3)c3ncnc(N)c23)ccc1C [Compound No. 49, 1-(2,3-dihydro-1H-inden-2-yl)-3-(3-methoxy-4-methylphenyl)-1H-pyrazolo[3,4-d]pyrimidin-4-amine] | 19.09 % Inh | 44.68 % Inh | 6.31 % Inh | 
10 | Nc1ncnc2c1c(-c1ccc(Cl)c(O)c1)nn2C1Cc2ccccc2C1 [Compound No. 56, 5-[4-amino-1-(2,3-dihydro-1H-inden-2-yl)-1H-pyrazolo[3,4-d]pyrimidin-3-yl]-2-chlorophenol] | 27.87 % Inh | 61.02 % Inh | 8.82 % Inh | 
11 | Nc1ncnc2c1c(-c1cc(O)cc(F)c1)cn2C1Cc2ccccc2C1 [Compound No. 63, 3-[4-amino-7-(2,3-dihydro-1H-inden-2-yl)-7H-pyrrolo[2,3-d]pyrimidin-5-yl]-5-fluorophenol] | 50.79 % Inh | 88.12 % Inh | 3.68 % Inh | 
12 | COc1ccc(-c2nn(C3Cc4ccccc4C3)c3ncnc(N)c23)cc1O [Compound No. 68, 5-[4-amino-1-(2,3-dihydro-1H-inden-2-yl)-1H-pyrazolo[3,4-d]pyrimidin-3-yl]-2-methoxyphenol] | 20.68 % Inh | 42.69 % Inh | −6.84 % Inh | 
13 | Nc1ncnc2c1c(-c1cc(O)c(F)c(F)c1)nn2C1Cc2ccccc2C1 [Compound No. 81, 5-[4-amino-1-(2,3-dihydro-1H-inden-2-yl)-1H-pyrazolo[3,4-d]pyrimidin-3-yl]-2,3-difluorophenol] | 73.05 % Inh | 71.22 % Inh | 2.1 % Inh | 
14 | Nc1ncnc2c1c(-c1cc(F)c3c(c1)NCCO3)nn2C1Cc2ccccc2C1 [Compound No. 84, 1-(2,3-dihydro-1H-inden-2-yl)-3-(8-fluoro-3,4-dihydro-2H-1,4-benzoxazin-6-yl)-1H-pyrazolo[3,4-d]pyrimidin-4-amine] | 27.83 % Inh | 23.9 % Inh | −2.3 % Inh | 
15 | Nc1ncnc2c1c(-c1ccc(Br)c(O)c1)nn2C1Cc2ccccc2C1 [compound 2, 5-(4-amino-1-(2,3-dihydro-1H-inden-2-yl)-1H-pyrazolo[3,4-d]pyrimidin-3-yl)-2-bromophenol] |  |  |  | IC50 (TEC): 0.1 µM; IC50 (ITK): > 100 µM
